Reference: PubChem BioAssay AID1633 (PCMD, 2009)

Biological target: Procathepsin L (Homo sapiens) (UniProt P07711)
Assay: CTSL inhibition IC50, probe compound – biochemical, dose response (AID 1633)
Conditions: purified cathepsin L, fluorogenic substrate, enzyme inhibition

Chain of Procathepsin L (Homo sapiens) (P07711 114-288 limits assumed): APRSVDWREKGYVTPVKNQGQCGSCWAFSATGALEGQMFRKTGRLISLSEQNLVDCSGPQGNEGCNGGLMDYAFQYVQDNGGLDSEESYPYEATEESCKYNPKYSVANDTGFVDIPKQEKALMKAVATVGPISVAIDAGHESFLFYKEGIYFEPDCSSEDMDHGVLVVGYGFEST
Chain of Procathepsin L (Homo sapiens) (P07711 292-333 limits assumed): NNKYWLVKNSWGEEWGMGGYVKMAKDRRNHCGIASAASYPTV

IC50: 201 nM
Compound: CCc1ccccc1NC(=O)CSC(=O)NNC(=O)[C@H](Cc1c[nH]c2ccccc12)NC(=O)OC(C)(C)C
